Experimental data taken from patent publication US20110212108A1, “NEUREGULIN/ERBB SIGNALING AND INTEGRIN” (THE REGENTS OF THE UNIVERSITY OF CALIFORNIA, priority 2008, published 2011).
“Also recorded” adds a separate entry of the source.

Key:
Human M21 melanoma cells = assay: M21 cell proliferation, MTS assay; assay type: cell-based; conditions: for Induction of proliferation of M21 melanoma cells: serum-starved overnight, cultured 48 h, MTS
Method: FIG. 8. […] The mutant NRG1 (175-222) suppressed proliferation induced by wt NRG1 (175-222) (dominant-negative effect). Human M21 melanoma cells were serum-starved overnight and cultured 48 h with wt or mutant GST-NRG1 (175-222). Cell proliferation was measured by using MTS assays. Data are shown as means+/−SE (n=3). […] For 3KE+WT, 10 ng/ml wt NRG1 (175-222) and mutant NRG1 (175-222) were added at the indicated concentrations. […] P<0.0001 between wt and 3KE, p=0.0001 between wt and 3KE+wt by 2-way ANOVA. There is no statistical significance between 3KE and 3KE+wt (p=0.58).
(§1) Cell proliferation: cells were starved by culturing DMEM with low-level FCS (e.g., 0.4%) overnight and then treated with the wt or mutant NRG1 (175-222) (up to 100 ng/ml). The cells were harvested in 15 min to 6 h after stimulation and cell lysates analyzed by western blotting with antibodies specific to signaling molecules. Alternatively, cells were cultured for 24-48 h after stimulation for testing proliferation or cell viability by MTS assays. Statistical analysis and calculation of kinetic constants were performed using Prism software (Graphpad).

[1] = tested on: CHO cells that express recombinant human ErbB4 (ErbB4-CHO); assay: ERK1/2 activation in ErbB4-CHO cells, Western blotting; assay type: cell-based, Chinese hamster; conditions: serum-starved
Method: (§2) FIG. 14. […] ErbB4 was stably expressed in CHO cells (designated ErbB4-CHO cells). ErbB4 was detected in a cell lysate of ErbB4-CHO cells by western blotting (top). Serum-starved CHO or ErbB4-CHO cells were stimulated with wt NRG1 (175-222) or the 3KE (175-222) mutant and ERK1/2 activation was measured by Western blotting.
(§3) CHO cells express endogenous ErbB2 and ErbB3, but no ErbB4. CHO cells that express ErbB4 were generated by transfecting ErbB4 expression vector (designated ErbB4-CHO). […] It is therefore believed that the direct binding of integrin […] the Ras-MAP kinase pathway in ErbB4-CHO cells.
Transfection: ErbB4 stably transfected cells were generated by transfecting ErbB4 expression plasmid pCDNA3.1 (with a neo gene) to cells and selected for G418 resistance. Western blotting analysis were performed as described above, and mutagenesis was carried out by the Quick-Change method.

CHO cells = assay: ERK1/2 activation in CHO cells, Western blotting; assay type: cell-based, Chinese hamster; conditions: serum-starved
Method: as §2, §3

B16F10 melanoma cells = assay: Western blotting of signaling in B16F10 cells; assay type: cell-based, mouse; conditions: 10 ng/ml
Method: FIG. 11. […] Cells were serum starved and stimulated with 10 ng/ml wt or mutant NRG1 (175-222). Cell lysates were analyzed by western blotting.
as §1
Signaling: The levels of cell proliferation were measured by MTS assays and the kinetic data were analyzed by using Prism software (Graphpad). Melanoma cells were cultured in the presence of wt or mutant NRG1 (175-222), and the levels of ErbB2 and B3 phosphorylation, MAP kinase activation, or activation of other signaling molecules in the cell lysates were monitored by immunoprecipitating ErbB2 and B3 from the lysates and detecting tyrosine phosphorylation by western blotting with anti-phosphotyrosine antibodies (the IP-Western method) for ErbB2 and B3. Alternatively, anti-phospho ErbB2 or B3 antibodies (commercially available) and anti-phospho ERK1/2 antibodies were used.

[2] = tested on: estrogen-dependent and independent breast cancer cell lines; assay: Growth of breast cancer cell lines; assay type: cell-based; conditions: several estrogen-dependent and independent lines
[3] = target: T1, Recombinant human ErbB3 Fc chimera (Homo sapiens, UniProt P21860); assay: ELISA-type binding to immobilized recombinant soluble ErbB3; conditions: ErbB3 Fc coated at 1 μg/ml, 1 h room temperature
T1 construct: Recombinant soluble ErbB3 Fc fusion protein was coated onto well of 96-well microtiter plate; purchased R&D Systems
T1 sequence (P21860 20-643 limits assumed, change not shown): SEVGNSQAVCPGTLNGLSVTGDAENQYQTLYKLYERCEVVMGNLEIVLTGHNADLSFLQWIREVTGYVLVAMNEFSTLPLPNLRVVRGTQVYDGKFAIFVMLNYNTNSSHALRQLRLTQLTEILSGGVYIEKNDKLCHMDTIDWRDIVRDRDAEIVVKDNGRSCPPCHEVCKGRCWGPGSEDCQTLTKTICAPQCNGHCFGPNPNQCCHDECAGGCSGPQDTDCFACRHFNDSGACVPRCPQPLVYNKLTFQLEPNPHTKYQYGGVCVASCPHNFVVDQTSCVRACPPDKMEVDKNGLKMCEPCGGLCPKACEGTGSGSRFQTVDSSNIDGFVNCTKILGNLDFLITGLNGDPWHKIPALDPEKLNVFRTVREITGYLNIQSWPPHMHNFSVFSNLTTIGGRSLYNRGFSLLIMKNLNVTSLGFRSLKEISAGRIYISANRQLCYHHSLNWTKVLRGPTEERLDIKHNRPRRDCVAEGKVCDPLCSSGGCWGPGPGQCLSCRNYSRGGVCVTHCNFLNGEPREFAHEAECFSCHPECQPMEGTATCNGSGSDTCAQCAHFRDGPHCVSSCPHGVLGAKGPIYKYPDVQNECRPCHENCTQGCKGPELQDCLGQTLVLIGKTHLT
Method: FIG. 20. The 3KE mutant of NRG1α (175-241) binds to ErbB3. a). Binding of the 3KE mutant of NRG1α (175-241) to recombinant ErbB3. Recombinant soluble ErbB3 Fc fusion protein (R&D system) was coated onto wells of 96-well microtiter plate (1 μg/ml). NRG1α (175-241) WT or 3KE (175-241) mutant was added to the wells and incubated for 1 h at room temperature. GST was used as a control. After washing the wells, bound GST NRG1α (175-241) was determined by using anti-GST antibody HRP conjugate. […] Competitive binding assay. Recombinant soluble ErbB3 Fc fusion protein was coated onto well of 96-well microtiter plate (1 μg/ml). Binding of biotin labeled NRG1α (175-241) WT (20 nM) in the presence of increasing concentrations of NRG1α (175-241) WT, 3KE (175-241) or GST. After washing the wells, bound biotin labeled NRG1α (175-241) WT was determined by using streptavidin HRP conjugate.

Molecule | Induction of proliferation of M21 melanoma cells (Human M21 melanoma cells) | ERK1/2 activation in ErbB4-CHO cells [1] | ERK1/2 activation in (mock-transfected) CHO cells (CHO cells) | ERK1/2 activation in B16F10 cells (B16F10 melanoma cells) | Growth of breast cancer cells [2] | also measured
3KE (175-222): NRG1 (175-222) with Lys181/Lys185/Lys187 mutated to Glu; GTSHLVECAEEEETFCVNGGECFMVKDLSNPSRYLCKCQPGFTGARCT (SEQ ID NO:11) (integrin-binding site within human neuregulin, 3KE mutant, short version) | did not induce proliferation | activated ERKI/2; also recorded: enhanced ERK1/2 activation | suppressed | did not induce them | did not | Suppression of proliferation induced by wt NRG1 (175-222) in M21 cells (Human M21 melanoma cells; added together with 10 ng/ml wt NRG1 (175-222)): suppressed the proliferation induced by wt NRG1 (175-222); ERK1/2 activation in (mock-transfected) CHO cells (CHO cells; listed as 3KE (175-222)): suppressed ERK1/2 activation; D1 cyclin levels in B16F10 cells (B16F10 melanoma cells): suppressed D1 cyclin levels very rapidly
wt NRG1 (175-222): wild type human neuregulin 1 fragment, EGF-like domain, residues 175-222 of SEQ ID NO:4 (SEQ ID NO:3) (GTSHLVKCAEKEKTFCVNGGECFMVKDLSNPSRYLCKCQPGFTGARCT; integrin-binding site within human neuregulin 1 EGF-like region and portion of alpha domain, residues 175-222 of human neuregulin 1 alpha) [reference compound] | did | suppressed ERK1/2 | enhanced ERK1/2 activation | induced | enhanced the growth of breast cancer cells | ERK1/2 activation in ErbB4-CHO cells ([1]; listed as wt NRG (175-222)): suppressed; AKT activation in B16F10 cells (B16F10 melanoma cells): induced
WT NRG1α (175-241): wild type human neuregulin 1 fragment, residues 175-241 of SEQ ID NO:4 (SEQ ID NO:5), entire EGF-like motif and α domain (protein, integrin-binding site within human neuregulin, residues 175-241of human neuregulin 1alpha, long version) GTSHLVKCAEKEKTFCVNGGECFMVKDLSNPSRYLCKCQPGFTGARCTENVPMKVQNQEKAEELYQK |  |  |  |  |  | Binding to immobilized soluble ErbB3 (ELISA-type assay) [3]: bound to immobilized soluble ErbB3 comparably
3KE (175-241): NRG1α (175-241) with Lys181/Lys185/Lys187 mutated to Glu, SEQ ID NO:6 (3KE, long version) (protein, integrin-binding site within human neuregulin, residues 175-241of human neuregulin 1alpha, long version, 3KE mutant) GTSHLVECAEEEETFCVNGGECFMVKDLSNPSRYLCKCQPGFTGARCTENVPMKVQNQEKAEELYQK |  |  |  |  |  | Binding to immobilized soluble ErbB3 (ELISA-type assay) ([3]; listed as 3KE mutant NRG1α (175-241)): bound to immobilized soluble ErbB3 comparably; Binding to immobilized soluble ErbB3 (ELISA-type assay) ([3]; listed as 3KE mutant of NRG1α (175-241)): binds to ErbB3 at levels nearly comparable to WT NRG1α (175-241)
